Earlier results in patent publication US7829066B2, “Assay for anti-metastatic agents” (Memorial Sloan-Kettering Cancer Center, priority 2006, dated 2010).

Test system: metastatic tumors
Settings: stated as known

## Avastin: an anti-VEGF inhibitor that is known to inhibit metastatic tumors
  inhibition of metastatic tumors: known to inhibit metastatic tumors
